In PubChem BioAssay AID1259407 (Chemical Carcinogenesis Research Information System (CCRIS), 2018):
Active and inactive are the calls of the source. How the calls were made is not given here.

System: CCRIS mutagenicity, Ames/micronucleus/aberration tests
Experiment: CCRIS mutagenicity studies
[1] = Test System: AMES SALMONELLA TYPHIMURIUM, Strain/Indicator: TA98, Metabolic Activation: NONE, Method: PREINCUBATION
[2] = Test System: AMES SALMONELLA TYPHIMURIUM, Strain/Indicator: TA100, Metabolic Activation: NONE, Method: STANDARD PLATE
[3] = Test System: AMES SALMONELLA TYPHIMURIUM, Strain/Indicator: TA98, Metabolic Activation: NONE, Method: STANDARD PLATE
[4] = Test System: AMES SALMONELLA TYPHIMURIUM, Strain/Indicator: TA98, Metabolic Activation: RAT, LIVER, S-9, AROCLOR 1254, Method: STANDARD PLATE
[5] = Test System: AMES SALMONELLA TYPHIMURIUM, Strain/Indicator: TA100, Metabolic Activation: RAT, LIVER, S-9, AROCLOR 1254, Method: STANDARD PLATE
[6] = Test System: AMES SALMONELLA TYPHIMURIUM, Strain/Indicator: TA1535, Metabolic Activation: RAT, LIVER, S-9, AROCLOR 1254, Method: STANDARD PLATE
[7] = Test System: AMES SALMONELLA TYPHIMURIUM, Strain/Indicator: TA1537, Metabolic Activation: RAT, LIVER, S-9, AROCLOR 1254, Method: STANDARD PLATE
[8] = Test System: AMES SALMONELLA TYPHIMURIUM, Strain/Indicator: TA1538, Metabolic Activation: RAT, LIVER, S-9, AROCLOR 1254, Method: STANDARD PLATE

Question: How did the mutagenic call [1] turn out when `Cc1cccn2c1nc1ccc(NO)nc12` was run?
Answer: active; positive

Question: What about the mutagenic call (Test System: AMES SALMONELLA TYPHIMURIUM, Strain/Indicator: YG1020, Metabolic Activation: NONE, Method: PREINCUBATION) of the same compound?
Answer: active; positive

Question: What about the mutagenic call (Test System: AMES SALMONELLA TYPHIMURIUM, Strain/Indicator: YG1021, Metabolic Activation: NONE, Method: PREINCUBATION) of the same compound?
Answer: active; positive

Question: What about the mutagenic call (Test System: AMES SALMONELLA TYPHIMURIUM, Strain/Indicator: YG1024, Metabolic Activation: NONE, Method: PREINCUBATION) of the same compound?
Answer: active; positive

Question: And the mutagenic call (Test System: AMES SALMONELLA TYPHIMURIUM, Strain/Indicator: YG1025, Metabolic Activation: NONE, Method: PREINCUBATION)?
Answer: inactive; negative

Question: What about the mutagenic call (Test System: AMES SALMONELLA TYPHIMURIUM, Strain/Indicator: YG1029, Metabolic Activation: NONE, Method: PREINCUBATION) of the same compound?
Answer: active; positive

Question: And the mutagenic call (Test System: AMES SALMONELLA TYPHIMURIUM, Strain/Indicator: YG1041, Metabolic Activation: NONE, Method: PREINCUBATION)?
Answer: active; positive

Question: How did the mutagenic call [2] turn out when `O=c1c2ccc(OCC3CO3)cc2sn1CC1CO1` (configuration not stated) was run?
Answer: active; positive

Question: With `CNC(=O)NOC(=O)N(C)C(=O)NC` as the compound, how does the mutagenic call [3] read?
Answer: inactive; negative

Question: And the mutagenic call (Test System: AMES SALMONELLA TYPHIMURIUM, Strain/Indicator: TA98, Metabolic Activation: RAT, LIVER, S-9, Method: STANDARD PLATE)?
Answer: inactive; negative

Question: What about the mutagenic call [2] of the same compound?
Answer: inactive; negative

Question: What does the source list for `CC(C)(Br)C(Br)CCl` (configuration not stated)?
Answer: mutagenic call (Test System: AMES SALMONELLA TYPHIMURIUM, Strain/Indicator: TA100, Metabolic Activation: RAT, LIVER, MICROSOMES, PHENOBARBITAL, Method: PREINCUBATION): inactive; negative; mutagenic call (Test System: AMES SALMONELLA TYPHIMURIUM, Strain/Indicator: TA100, Metabolic Activation: RAT, LIVER, MICROSOMES, Method: PREINCUBATION): inactive; negative

Question: `Cc1ccc(C(=O)ON(OCc2ccccc2)C(=O)c2ccccc2)cc1` was tested. Which mutagenic call [2] did it give?
Answer: active; positive

Question: What about the mutagenic call (Test System: AMES SALMONELLA TYPHIMURIUM, Strain/Indicator: TA100, Metabolic Activation: RAT, S-9, AROCLOR, Method: STANDARD PLATE) of the same compound?
Answer: active; positive

Question: Which mutagenic call (Test System: AMES SALMONELLA TYPHIMURIUM, Strain/Indicator: TA98, Metabolic Activation: RAT, LIVER, CYTOSOL, AROCLOR 1254, Method: STANDARD PLATE) does the source give for `Cc1ccc2c(ccc3c4ccccc4ccc23)c1` here?
Answer: inactive; negative

Question: What about the mutagenic call (Test System: AMES SALMONELLA TYPHIMURIUM, Strain/Indicator: TA98, Metabolic Activation: RAT, LIVER, MICROSOMES, AROCLOR 1254, Method: STANDARD PLATE) of the same compound?
Answer: inactive; negative

Question: And the mutagenic call (Test System: AMES SALMONELLA TYPHIMURIUM, Strain/Indicator: TA100, Metabolic Activation: RAT, LIVER, MICROSOMES, 2-METHYLCHRYSENE, Method: STANDARD PLATE)?
Answer: inactive; negative

Question: And the mutagenic call (Test System: AMES SALMONELLA TYPHIMURIUM, Strain/Indicator: TA100, Metabolic Activation: RAT, LIVER, MICROSOMES, AROCLOR 1254, Method: STANDARD PLATE)?
Answer: active; positive

Question: And the mutagenic call (Test System: AMES SALMONELLA TYPHIMURIUM, Strain/Indicator: TA100, Metabolic Activation: RAT, LIVER, MICROSOMES, Method: STANDARD PLATE)?
Answer: inactive; negative

Question: Which mutagenic call [2] does the source give for `CC(=O)C(=O)c1ccccc1` here?
Answer: inactive; negative

Question: What does the source list for `CC1(C)S[C@@H]2[C@H](NC(=O)[C@H](N)c3ccccc3)C(=O)N2[C@H]1C(=O)O`?
Answer: mutagenic call (End Point: IN VITRO CHROMOSOMAL ABERRATIONS, Test System: CHO CELLS, Metabolic Activation: NONE): inactive; negative; testing limited by solubility of chemical; mutagenic call (End Point: IN VITRO CHROMOSOMAL ABERRATIONS, Test System: CHO CELLS, Metabolic Activation: RAT, LIVER, S-9, AROCLOR 1254): inactive; negative; testing limited by solubility of chemical; mutagenic call (Test System: AMES SALMONELLA TYPHIMURIUM, Strain/Indicator: TA98, Metabolic Activation: HAMSTER, LIVER, S-9, AROCLOR 1254, Method: PREINCUBATION): inactive; negative; mutagenic call [1]: inactive; negative; mutagenic call (Test System: AMES SALMONELLA TYPHIMURIUM, Strain/Indicator: TA98, Metabolic Activation: RAT, LIVER, S-9, AROCLOR 1254, Method: PREINCUBATION): inactive; negative; mutagenic call (Test System: AMES SALMONELLA TYPHIMURIUM, Strain/Indicator: TA100, Metabolic Activation: HAMSTER, LIVER, S-9, AROCLOR 1254, Method: PREINCUBATION): inactive; negative; mutagenic call (Test System: AMES SALMONELLA TYPHIMURIUM, Strain/Indicator: TA100, Metabolic Activation: NONE, Method: PREINCUBATION): inactive; negative; mutagenic call (Test System: AMES SALMONELLA TYPHIMURIUM, Strain/Indicator: TA100, Metabolic Activation: RAT, LIVER, S-9, AROCLOR 1254, Method: PREINCUBATION): inactive; negative; mutagenic call (Test System: AMES SALMONELLA TYPHIMURIUM, Strain/Indicator: TA1535, Metabolic Activation: HAMSTER, LIVER, S-9, AROCLOR 1254, Method: PREINCUBATION): inactive; negative; mutagenic call (Test System: AMES SALMONELLA TYPHIMURIUM, Strain/Indicator: TA1535, Metabolic Activation: NONE, Method: PREINCUBATION): inactive; negative; mutagenic call (Test System: AMES SALMONELLA TYPHIMURIUM, Strain/Indicator: TA1535, Metabolic Activation: RAT, LIVER, S-9, AROCLOR 1254, Method: PREINCUBATION): inactive; negative; mutagenic call (Test System: AMES SALMONELLA TYPHIMURIUM, Strain/Indicator: TA1537, Metabolic Activation: HAMSTER, LIVER, S-9, AROCLOR 1254, Method: PREINCUBATION): inactive; negative; mutagenic call (Test System: AMES SALMONELLA TYPHIMURIUM, Strain/Indicator: TA1537, Metabolic Activation: NONE, Method: PREINCUBATION): inactive; negative; mutagenic call (Test System: AMES SALMONELLA TYPHIMURIUM, Strain/Indicator: TA1537, Metabolic Activation: RAT, LIVER, S-9, AROCLOR 1254, Method: PREINCUBATION): inactive; negative; mutagenic call (Test System: MOUSE LYMPHOMA, Strain/Indicator: L5178Y (TK+/TK-), Metabolic Activation: NONE, Method: SUSPENSION/PLATE): inactive; negative; mutagenic call (Test System: MOUSE LYMPHOMA, Strain/Indicator: L5178Y (TK+/TK-), Metabolic Activation: RAT, LIVER, S-9, AROCLOR 1254, Method: SUSPENSION/PLATE): inactive; negative

Question: Which results are given for `C1=Cc2cc3c4ccccc4ccc3c3cccc1c23`?
Answer: mutagenic call [3]: inactive; negative; mutagenic call (Test System: AMES SALMONELLA TYPHIMURIUM, Strain/Indicator: TA98, Metabolic Activation: RAT, LIVER, S-9, AROCLOR 1254 (0.127 OR 1.27 MG S-9 PROTEIN), Method: STANDARD PLATE): active; positive; mutagenic call [4]: active; positive; mutagenic call [5]: active; positive; mutagenic call [6]: inactive; negative; mutagenic call [7]: active; positive; mutagenic call [8]: active; positive

Question: Which mutagenic call [3] does the source give for `C[C@@H]1O[C@@H](OC[C@H]2O[C@@H](Oc3c(-c4ccc(OCCO)c(OCCO)c4)oc4cc(OCCO)cc(O)c4c3=O)[C@H](O)[C@@H](O)[C@@H]2O)[C@H](O)[C@H](O)[C@H]1O` here?
Answer: inactive; negative

Question: What about the mutagenic call [4] of the same compound?
Answer: inactive; negative

Question: What about the mutagenic call [2] of the same compound?
Answer: inactive; negative

Question: And the mutagenic call [5]?
Answer: inactive; negative

Question: And the mutagenic call (Test System: AMES SALMONELLA TYPHIMURIUM, Strain/Indicator: TA1535, Metabolic Activation: NONE, Method: STANDARD PLATE)?
Answer: inactive; negative

Question: What about the mutagenic call [6] of the same compound?
Answer: inactive; negative

Question: What about the mutagenic call (Test System: AMES SALMONELLA TYPHIMURIUM, Strain/Indicator: TA1537, Metabolic Activation: NONE, Method: STANDARD PLATE) of the same compound?
Answer: inactive; negative

Question: What about the mutagenic call [7] of the same compound?
Answer: inactive; negative

Question: What about the mutagenic call (Test System: AMES SALMONELLA TYPHIMURIUM, Strain/Indicator: TA1538, Metabolic Activation: NONE, Method: STANDARD PLATE) of the same compound?
Answer: inactive; negative

Question: And the mutagenic call [8]?
Answer: inactive; negative

Question: How did the mutagenic call (Test System: AMES SALMONELLA TYPHIMURIUM, Strain/Indicator: TA98, Method: STANDARD PLATE) turn out when `CCc1c2ccccc2c(C)c2ccc3ccccc3c12` was run?
Answer: inactive; negative

Question: What about the mutagenic call (Test System: AMES SALMONELLA TYPHIMURIUM, Strain/Indicator: TA100, Metabolic Activation: RAT, LIVER, S-9, PHENOBARBITAL, Method: STANDARD PLATE) of the same compound?
Answer: inactive; negative

Question: And the mutagenic call (Test System: AMES SALMONELLA TYPHIMURIUM, Strain/Indicator: TA100, Method: STANDARD PLATE)?
Answer: inactive; negative

Question: Which results are given for `Cc1ccc2c(c1)C(C)c1ccccc1-2` (configuration not stated)?
Answer: mutagenic call [4]: inactive; negative; mutagenic call [5]: active; positive

Question: With `c1ccc([C@H]2O[C@H]2c2ccccc2)cc1` as the compound, how does the mutagenic call (Test System: UDS RAT HEPATOCYTES, Strain/Indicator: THY INCORP, Metabolic Activation: NONE) read?
Answer: inactive; negative

Question: What does the source list for `COC(=O)c1ccco1`?
Answer: mutagenic call [3]: inactive; negative; mutagenic call [2]: inactive; negative
